Assay results published in patent publication US10647680B2, “Urea compound, preparation method therefor and medical use thereof” (Ancureall Pharmaceutical (Shanghai) Co., Ltd., priority 2016, dated 2020).

Tests used:
[1] = system: MV4-11 (FLT3 ITD+/+ mutant type); assay: In vitro growth inhibition (GI50), MV4-11; format: cell-based, human; settings: Homo sapiens, MV4-11; Cell lines of leukemia; read-out: GI 50 MV4-11 FLT3 (ITD +/+)
[2] = system: MOLM-13 (FLT3 ITD+/− mutant type); assay: In vitro growth inhibition (GI50), MOLM-13; format: cell-based, human; settings: Homo sapiens, MOLM-13; Cell lines of leukemia; read-out: GI 50 MOLM-13 FLT3 (ITD+/−)
RS4; 11 (FLT3 wild type) = assay: In vitro growth inhibition (GI50), RS4; 11; format: cell-based, human; settings: Homo sapiens, RS4-11; Cell lines of leukemia; read-out: GI 50 RS4: 11 FLT3 (WT)
[3] = system: K562 (FLT3 negative expression, positive expression of BCR-ABL fusion protein); assay: In vitro growth inhibition (GI50), K562; format: cell-based; settings: Homo sapiens, Cell lines of leukemia, read-out: GI 50 K562 BCR-ABL
[4] = system: RAMOS (positive expression of Brutons tyrosine protein kinase); assay: In vitro growth inhibition (GI50), RAMOS; format: cell-based; settings: Homo sapiens, Cell lines of leukemia, read-out: GI 50 Ramos BTK
U937 (FLT3 wild-type) = assay: In vitro growth inhibition (GI50), U937; format: cell-based; settings: Homo sapiens, U-937; Cell lines of leukemia; read-out: GI 50 U937 FLT 3(WT)
[5] = system: Kasumi-1 (c-Kit N822K mutant type); assay: In vitro growth inhibition (GI50), Kasumi-1; format: cell-based; settings: Homo sapiens, Cell lines of leukemia, read-out: GI 50 Kasumi-1 Kit (N822K)
Procedure, shortened: (§1)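 After 3–5 days of treatment (top concentration 5,000 nM, serially diluted 2- or 10-fold to 0.01 nM, solvent ≤1%), viability was read by CCK8 at OD450. Growth rate was normalised to the time-zero and solvent-control wells, and GI50 was derived from the curve. Cultures in RPMI1640 + 10% FBS.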

[6] = system: KG-1 (expressing FGFR1OP2-FGFR1 fusion protein); assay: In vitro growth inhibition (GI50), KG-1; format: cell-based; settings: Homo sapiens; Cell lines of leukemia; read-out: GI 50 KG-1 FGFR1OP 2-FGFR1
HL-60 (FLT3 wild type) = assay: In vitro growth inhibition (GI50), HL-60; format: cell-based; settings: Homo sapiens, Cell lines of leukemia, read-out: GI 50 HL60 FLT3 (WT)
Procedure, shortened: as §1

[7] = system: OCI-AML3 (NPMc+ mutant type); assay: In vitro growth inhibition (GI50), OCI-AML3; format: cell-based; settings: Homo sapiens, OCI-AML-3; Cell lines of leukemia; read-out: GI 50 OCI- AML3 NPMc+

SMILES	GI50 [1] [µM]	GI50 [2] [µM]	GI50 (RS4; 11 (FLT3 wild type)) [µM]	GI50 [3] [µM]	GI50 [4] [µM]	GI50 (U937 (FLT3 wild-type)) [µM]	GI50 [5] [µM]	GI50 [6] [µM]	GI50 (HL-60 (FLT3 wild type)) [µM]	GI50 [7] [µM]
CN1CCN(CCCOc2ccc3c(c2)ncn3-c2ccc(NC(=O)Nc3cc(C(C)(C)C)n[nH]3)cc2)CC1 [Compound 92, 1-(5-tert-butyl-2H-pyrazol-3-yl)-3-(4-{5-[3-(4-methyl-piperazin-1-yl)-propoxyl]-benzimidazol-1-yl}-phenyl)-urea]	0.0001 to 0.001	0.0001 to 0.001	0.01 to 0.1	> 1	0.1 to 1	0.1 to 1	> 1	> 1	> 1	> 1
CC(C)(C)c1cc(NC(=O)Nc2ccc(-n3cnc4cc(OCc5cccc(F)c5)ccc43)cc2)[nH]n1 [Compound 93, 1-(5-tert-butyl-2H-pyrazol-3-yl)-3-{4-[5-(3-fluoro-benzyloxy)-benzimidazol-1-yl]-phenyl]-urea]	0.001 to 0.01	0.001 to 0.01	> 1	> 1	> 1	> 1	> 1	> 1	> 1	> 1
CC(C)(C)c1cc(NC(=O)Nc2ccc(-n3cnc4cc(OCCCCc5nnnn5C5CCCCC5)ccc43)cc2)[nH]n1 [Compound 94, 1-(5-tert-butyl-2H-pyrazol-3-yl)-3-(4-{5-[4-(1-cyclohexyl-1H-tetrazol-5-yl)-butoxy]-benzimidazol-1-yl}-phenyl)-urea]	0.001 to 0.01	0.001 to 0.01	> 1	> 1	> 1	> 1	> 1	> 1	> 1	> 1
CC(C)(C)c1cc(NC(=O)Nc2ccc(-n3cnc4cc(Oc5nsnc5N5CCOCC5)ccc43)cc2)[nH]n1 [Compound 95, 1-(5-tert-butyl-2H-pyrazol-3-yl)-3-{4-[5-(4-morpholin-4-yl-[1,2,5]thiadiazol-3-yloxy)-benzimidazol-1-yl]-phenyl}-urea]	0.001 to 0.01	0.001 to 0.01	> 1	> 1	> 1	> 1	> 1	> 1	> 1	> 1
CNC(=O)c1cc(Oc2ccc3c(c2)ncn3-c2ccc(NC(=O)Nc3cc(C(C)(C)C)n[nH]3)cc2)ccn1 [Compound 96, 4-(1-{4-[3-(5-tert-butyl-2H-pyrazol-3-yl)-carbamido]-phenyl}-1H-benzimidazol-5-yloxy)-pyridin-2-carboxymethylamine]	0.001 to 0.01	0.001 to 0.01	> 1	> 1	> 1	> 1	> 1	> 1	> 1	> 1
Cc1cc(F)cc2ncn(-c3ccc(NC(=O)Nc4cc(C(C)(C)C)n[nH]4)cc3)c12 [Compound 97, 1-(5-tert-butyl-2H-pyrazol-3-yl)-3-[4-(5-fluoro-7-methyl-benzimidazol-1-yl)-phenyl]-urea]	0.001 to 0.01	0.001 to 0.01	> 1	> 1	> 1	> 1	> 1	> 1	> 1	> 1
COc1cc2ncn(-c3ccc(NC(=O)Nc4cc(C(C)(C)C)n[nH]4)cc3)c2cc1OC [Compound 99, 1-(5-tert-butyl-2H-pyrazol-3-yl)-3-[4-(5,6-dimethoxyl-benzimidazol-1-yl)-phenyl]-urea]	0.0001 to 0.001	0.0001 to 0.001	> 1	> 1	> 1	> 1	> 1	> 1	> 1	> 1
Cn1nc(C(C)(C)C)cc1NC(=O)Nc1ccc(-n2cnc3ccccc32)cc1 [Compound 100, 1-(4-benzimidazol-1-yl-phenyl)-3-(5-tert-butyl-2-methyl-2H-pyrazol-3-yl)-urea]	0.0001 to 0.001	0.0001 to 0.001	> 1	> 1	> 1	> 1	> 1	> 1	> 1	> 1
CC(C)(C)c1cc(NC(=O)Nc2ccc(-n3cnc4ccccc43)cc2)n(CCO)n1 [Compound 103, 1-(4-benzimidazol-1-yl-phenyl)-3-[5-tert-butyl-2-(2-hydroxy-ethyl)-2H-pyrazol-3-yl]-urea]	0.001 to 0.01	0.001 to 0.01	> 1	> 1	> 1	> 1	> 1	> 1	> 1	> 1
CC(C)(C)c1cc(NC(=O)Nc2ccc(-n3cnc4ccccc43)cc2)n(-c2ccccc2)n1 [Compound 104, 1-(4-benzimidazol-1-yl-phenyl)-3-(5-tert-butyl-2-phenyl-2H-pyrazol-3-yl)-urea]	0.0001 to 0.001	0.0001 to 0.001	> 1	> 1	> 1	> 1	> 1	> 1	> 1	> 1
Cc1ccc(-n2nc(C(C)(C)C)cc2NC(=O)Nc2ccc(-n3cnc4ccccc43)cc2)cc1 [Compound 105, 1-(4-benzimidazol-1-yl-phenyl)-3-(5-tert-butyl-2-p-tolyl-2H-pyrazol-3-yl)-urea]	0.01 to 0.1	0.01 to 0.1	> 1	> 1	> 1	> 1	> 1	> 1	> 1	> 1
COc1ccc(-n2nc(C(C)(C)C)cc2NC(=O)Nc2ccc(-n3cnc4ccccc43)cc2)cc1 [Compound 106, 1-(4-benzimidazol-1-yl-phenyl)-3-[5-tert-butyl-2-(4-methoxyl-phenyl)-2H-pyrazol-3-yl]-urea]	0.01 to 0.1	0.01 to 0.1	> 1	> 1	> 1	> 1	> 1	> 1	> 1	> 1
CC(C)(C)c1cc(NC(=O)Nc2ccc(-n3cnc4ccccc43)cc2)n(-c2ccc(OC(F)(F)F)cc2)n1 [Compound 107, 1-(4-benzimidazol-1-yl-phenyl)-3-[5-tert-butyl-2-(4-trifluoromethoxy-phenyl)-2H-pyrazol-3-yl]-urea]	0.01 to 0.1	0.01 to 0.1	> 1	> 1	> 1	> 1	> 1	> 1	> 1	> 1
CC(C)(C)c1cc(NC(=O)Nc2ccc(-n3cnc4ccccc43)cc2)n(-c2ccc(F)cc2)n1 [Compound 108, 1-(4-benzimidazol-1-yl-phenyl)-3-[5-tert-butyl-2-(4-fluoro-phenyl)-2H-pyrazol-3-yl]-urea]	0.01 to 0.1	0.01 to 0.1	0.1 to 1	0.1 to 1	> 1	> 1	> 1	> 1	> 1	0.1 to 1
CC(C)(C)c1cc(NC(=O)Nc2ccc(-n3cnc4ccccc43)cc2)n(-c2ccccc2F)n1 [Compound 109, 1-(4-benzimidazol-1-yl-phenyl)-3-[5-tert-butyl-2-(2-fluoro-phenyl)-2H-pyrazol-3-yl]-urea]	0.001 to 0.01	0.001 to 0.01	0.1 to 1	0.1 to 1	> 1	> 1	> 1	> 1	> 1	> 1
CC(C)(C)c1cc(NC(=O)Nc2ccc(-n3cnc4ccccc43)cc2)n(-c2ccccn2)n1 [Compound 110, 1-(4-benzimidazol-1-yl-phenyl)-3-(5-tert-butyl-2-pyridin-2-yl-2H-pyrazol-3-yl)-urea]	0.01 to 0.1	0.01 to 0.1	> 1	> 1	> 1	> 1	> 1	> 1	> 1	> 1
